Assay results published in US11998523B2, “Ascorbic acid and quinone compounds for treating Chagas disease” (IC-MedTech Corp., priority 2016, dated 2024).
Read-outs that look alike come from different tables or passages of the source.

How the values were obtained:
Assay type in all cases: cell-based
[1] = test system: parasitic forms of Trypanosoma cruzi; assay: Total ROS production (H2DCFDA labeling); settings: H2O2 20.0 μM
Experimental: FIGS. 2A, 2B, and 2C show the effects of VC and VK3 on the total reactive oxygen species (ROS) production in parasitic forms of Trypanosoma cruzi, where the parasites were treated with VC and VK3, alone and combined, for 24 hrs using H2DCFDA labeling; and where epimastigote forms (FIG. 2A) were treated with 0.61 mM VC and 1.90 μM VK3, alone and combined; trypomastigote forms (FIG. 2B) were treated with 0.20 mM VC and 0.35 μM VK3, alone and combined; and amastigote forms (FIG. 2C) were treated with 0.18 mM VC and 0.30 μM VK3, alone and combined. H2O2 was used as a positive control. Total ROS were measured as an increase in fluorescence that is caused by the conversion of nonfluorescent dye to fluorescent DCF. The results are expressed as the mean fluorescence (in arbitrary units [A.U.]±SE) of at least three independent experiments. The symbol * indicates significant differences compared with the control group (untreated cells; p≤0.05). The production of total reactive oxygen species (total ROS) was evaluated in parasitic forms after exposure to VC and VK3 using the probe H2DCFDA. Epimastigote forms (1×10^6 parasites/mL) were evaluated after exposure to 0.61 mM VC and 1.90 μM VK3, alone and in combination, for 24 hrs at 28° C. Trypomastigote forms (1×10^7 parasites/mL) were evaluated after exposure to 0.20 mM VC and 0.35 μM VK3, alone and in combination, for 24 hrs at 37° C. in a 5% CO2 atmosphere. Amastigote forms (1×10^7 parasites/mL) were evaluated after exposure to 0.18 mM VC and 0.30 μM VK3, alone and in combination, for 24 hrs at 37° C. in a 5% CO2 atmosphere. Hydrogen peroxide (H2O2; 20.0 μM) was used as a positive control. Afterward, the parasites were centrifuged, washed, and resuspended in PBS. Parasites were loaded with 10.0 μM of the permeant probe H2DCFDA in the dark for 45 min.

[2] = test system: intracellular amastigote forms of T. cruzi (Y strain) in LLCMK2 cells; assay: Activity against intracellular amastigote forms in LLCMK2 cells (survival index, Combination Index method); settings: Trypanosoma cruzi
Experimental: All of the experiments were performed using the Y strain of T. cruzi. Pereira et al., Folia Clin. Biol. 1953, 20, 191-208. Epimastigote forms were axenically maintained at 28° C. with weekly transfers in liver infusion tryptose (LIT) medium supplemented with 10% heat-inactivated FBS, pH 7.4. Camargo, Rev. Inst. Med. Trop. São Paulo. 1964, 6, 93-100. Trypomastigote and amastigote forms were obtained from the previously infected monolayers of LLCMK2 cells (epithelial cells of monkey kidney [Macaca mulatta]; CCL-7; American Type Culture Collection, Rockville, MD, USA) in DMEM supplemented with 2 mM L-glutamine and 10% FBS, buffered with sodium bicarbonate in a 5% CO2 air mixture at 37° C. […] The number of infected cells and amastigotes was determined by randomly counting 200 cells. The results were calculated as the survival index, which was obtained by multiplying the percentage of infected cells by the number of amastigotes per infected LLCMK2 cell and then determining the percentage of inhibition. […] The data were calculated and mathematically expressed as a Combination Index: CI=(IC50 VK3 combined/IC50 VK3 alone)+(IC50 VC combined/IC50 VC alone) for epimastigotes and amastigotes and CI=(EC50 VK3 combined/EC50 VK3 alone)+(EC50 VC combined/EC50 VC alone) for trypomastigotes. […]

[3] = test system: Trypomastigote forms of T. cruzi (Y strain); assay: Trypanocidal effect on trypomastigote forms (viability by mobility, Pizzi-Brener method, Combination Index method); settings: Trypanosoma cruzi
Experimental: All of the experiments were performed using the Y strain of T. cruzi. Pereira et al., Folia Clin. Biol. 1953, 20, 191-208. Epimastigote forms were axenically maintained at 28° C. with weekly transfers in liver infusion tryptose (LIT) medium supplemented with 10% heat-inactivated FBS, pH 7.4. Camargo, Rev. Inst. Med. Trop. São Paulo. 1964, 6, 93-100. Trypomastigote and amastigote forms were obtained from the previously infected monolayers of LLCMK2 cells (epithelial cells of monkey kidney [Macaca mulatta]; CCL-7; American Type Culture Collection, Rockville, MD, USA) in DMEM supplemented with 2 mM L-glutamine and 10% FBS, buffered with sodium bicarbonate in a 5% CO2 air mixture at 37° C. […] After incubation, the viability of the parasites was determined by examining mobility under a light microscope (Olympus CX31) using the Pizzi-Brener method. […] The data were calculated and mathematically expressed as a Combination Index: CI=(IC50 VK3 combined/IC50 VK3 alone)+(IC50 VC combined/IC50 VC alone) for epimastigotes and amastigotes and CI=(EC50 VK3 combined/EC50 VK3 alone)+(EC50 VC combined/EC50 VC alone) for trypomastigotes. […] The data were also graphically expressed as isobolograms by plotting concentrations of vitamins that alone or in combination induced activity against 50% of the forms of the parasite.

[4] = test system: Epimastigote forms of T. cruzi (Y strain); assay: Trypanocidal effect on epimastigote forms (counting in Neubauer hemocytometer, Combination Index method); settings: Trypanosoma cruzi
Experimental: All of the experiments were performed using the Y strain of T. cruzi. Pereira et al., Folia Clin. Biol. 1953, 20, 191-208. Epimastigote forms were axenically maintained at 28° C. with weekly transfers in liver infusion tryptose (LIT) medium supplemented with 10% heat-inactivated FBS, pH 7.4. Camargo, Rev. Inst. Med. Trop. São Paulo. 1964, 6, 93-100. Trypomastigote and amastigote forms were obtained from the previously infected monolayers of LLCMK2 cells (epithelial cells of monkey kidney [Macaca mulatta]; CCL-7; American Type Culture Collection, Rockville, MD, USA) in DMEM supplemented with 2 mM L-glutamine and 10% FBS, buffered with sodium bicarbonate in a 5% CO2 air mixture at 37° C. […] The number of epimastigote forms was determined by counting in a Neubauer hemocytometer after 96 hrs. The data were calculated and mathematically expressed as a Combination Index: CI=(IC50 VK3 combined/IC50 VK3 alone)+(IC50 VC combined/IC50 VC alone) for epimastigotes and amastigotes and CI=(EC50 VK3 combined/EC50 VK3 alone)+(EC50 VC combined/EC50 VC alone) for trypomastigotes. […] The data were also graphically expressed as isobolograms by plotting concentrations of vitamins that alone or in combination induced activity against 50% of the forms of the parasite.

OO [H2O2, Hydrogen peroxide]
increase in ROS production (positive control) ([1]; amastigotes): 60% | increase in ROS production (positive control) ([1]; epimastigotes): 69% | increase in ROS production (positive control) ([1]; trypomastigotes): 77%

O=C1O[C@H]([C@@H](O)CO)C(O)=C1O [VC, L-ascorbic acid]
IC50 ([2]; LLC-MK2, combined with 0.30 μM VK3, read-out: VC concentration in the combination with synergistic effect on 50% of the parasites (IC50 VC combined)): 180 µM | EC50 ([3]; combined with 0.35 μM VK3, read-out: VC concentration in the combination with synergistic effect on 50% of the parasites (EC50 VC combined)): 200 µM | IC50 ([4]; combined with 1.90 μM VK3, read-out: VC concentration in the combination with synergistic effect on 50% of the parasites (IC50 VC combined)): 610 µM

CC1=CC(=O)c2ccccc2C1=O [VK3, 2-methyl-1,4-naphthalenedione]
IC50 ([2]; LLC-MK2, combined with 0.18 mM VC, read-out: VK3 concentration in the combination with synergistic effect on 50% of the parasites (IC50 VK3 combined)): 0.3 µM | EC50 ([3]; combined with 0.20 mM VC, read-out: VK3 concentration in the combination with synergistic effect on 50% of the parasites (EC50 VK3 combined)): 0.35 µM | IC50 ([4]; .61 mM VC, read-out: VK3 concentration in the combination with synergistic effect on 50% of the parasites (IC50 VK3 combined)): 1.9 µM
